In PMC7562955 (Nature Communications, 2020):
Where “and” joins values, the source holds several entries; their conditions need not be identical. Equal values may be shown once. Read-outs that look alike come from different tables or passages of the source.

Experiments:
[1] = Pharmacokinetic profiling after oral dose in NZB/W F1 mice; assay type: in vivo, mouse; details: for plasma Concentration, individual mouse / concentration at 3 h / concentration at 6 h / concentration at 24 h: 100 mg/kg po; for concentration at 3 h / concentration at 6 h / concentration at 24 h: female, NZB/W F1, mouse, plasma, oral, 100 mg/kg
Procedure: Cpd-7 was orally administered to 35-week-old female NZB/W F1 mice at 100 mg kg^−1 dissolved in 0.5 w/v% Methyl Cellulose 400 Solution (WAKO, Japan). Blood was collected over 24 h from the isoflurane-anesthetized mice via the jugular vein. The plasma samples were separated by centrifugation. Cpd-7 was extracted from the plasma samples by protein precipitation with methanol and measured using LC/MS/MS (HPLC: SHIMADZU CORPORATION, Japan; MS: AB Sciex Pte. Ltd., Japan). The lower limit of quantification was set at 5 ng/mL.

[2] = test system: lupus-prone NZB/W F1 mice; experiment: Efficacy study in lupus-prone NZB/W F1 mice (proteinuria, survival, kidney histopathology); assay type: in vivo; details: for proteinuria (urinary albumin/creatinine ratio), mean / Histological score (glomerular lesion), Mean: n = 6; for Histological score (glomerular lesion), individual mouse: 0–4 scale
Procedure: At the initiation of treatment, mice were randomly divided according to bodyweight and proteinuria level (urinary albumin/creatinine ratio over 300 mg g^−1) and were orally once or twice daily. […] During the treatment, nearly dead individuals were euthanized, then sera and kidneys were collected. In this case, the last known values for urinary protein was carried forward.
Urine protein was quantified by automatic analyzer (BioMajesty ZERO(JCA-ZS050), JEOL Ltd, Japan) with Mouse Urinary Albumin Assay Kit (S-type) (AKRAL-021S, Shibayagi Co.,Ltd., Japan). Urine creatinine levels were measured in the same samples. The urine albumin excretion rate is expressed as the ratio of albumin to creatinine. Time course of proteinuria were analyzed by Dunnett’s multiple-range test.
The both kidneys were fixed in 10% neutral-buffered formalin, embedded in paraffin, sectioned, stained with hematoxylin and eosin (HE) and periodic acid-Schiff (PAS), and examined by light microscopy. Glomerulonephritis was scored on a 0–4 scale, based on the intensity and extent of histopathological changes. A grade of 0 was given to kidney without glomerular lesions; a grade of 1 was given when there was minimal thickening of the mesangium; a grade of 2 was given when there was a noticeable increase in both mesangial and glomerular capillary cellularity; a grade of 3 was given when the preceding conditions were observed, along with superimposed inflammatory exudates and capsular adhesions; and a grade of 4 was given when the obliteration of the glomerular architecture included 70% of glomeruli. These classifications were used to grade 20 glomeruli within one area, and the mean glomerular histopathological score was calculated for each mouse. Data were analyzed by Tukey’s test.

[3] = 100 mg kg−1 po once or twice daily, four weeks

CCOc1nc(C)c2nc(-c3cncc(F)c3)n(Cc3ccc(CN4C[C@@H]5C[C@H]4CN5C)cc3)c2n1 [Cpd-7]
plasma Concentration, individual mouse ([1]; 3 h): 3240 ng/mL and 2770 ng/mL | plasma Concentration, individual mouse ([1]; 6 h): 948 ng/mL and 525 ng/mL | plasma Concentration, individual mouse ([1]; 24 h): 10 ng/mL and 7.55 ng/mL | concentration at 3 h ([1]; 3 h, n = 3, read-out: plasma Concentration, Mean): 2890 ng/mL | concentration at 3 h ([1]; 3 h, read-out: plasma Concentration, individual mouse): 2650 ng/mL | concentration at 6 h ([1]; 6 h, n = 3, read-out: plasma Concentration, Mean): 710 ng/mL | concentration at 6 h ([1]; 6 h, read-out: plasma Concentration, individual mouse): 658 ng/mL | concentration at 24 h ([1]; 24 h, n = 3, read-out: plasma Concentration, Mean): 8.63 ng/mL | concentration at 24 h ([1]; 24 h, read-out: plasma Concentration, individual mouse): 8.33 ng/mL | oral availability ([1]; single 100 mg kg−1 po): orally available | proteinuria (urinary albumin/creatinine ratio), mean ([2]; 100 mg kg-1 po B.I.D, 0 wk): 1719.9 | proteinuria (urinary albumin/creatinine ratio), mean ([2]; 100 mg kg-1 po B.I.D, 1 wk): 7204.5 | proteinuria (urinary albumin/creatinine ratio), mean ([2]; 100 mg kg-1 po B.I.D, 2 wk): 747.0 | proteinuria (urinary albumin/creatinine ratio), mean ([2]; 100 mg kg-1 po B.I.D, 3 wk): 150.9 | proteinuria (urinary albumin/creatinine ratio), mean ([2]; 100 mg kg-1 po B.I.D, 4 wk): 121.0 | proteinuria (urinary albumin/creatinine ratio), mean ([2]; 100 mg kg-1 po Q.D., 0 wk): 1780.7 | proteinuria (urinary albumin/creatinine ratio), mean ([2]; 100 mg kg-1 po Q.D., 1 wk): 10042.5 | proteinuria (urinary albumin/creatinine ratio), mean ([2]; 100 mg kg-1 po Q.D., 2 wk): 9132.2 | proteinuria (urinary albumin/creatinine ratio), mean ([2]; 100 mg kg-1 po Q.D., 3 wk): 6691.2 | proteinuria (urinary albumin/creatinine ratio), mean ([2]; 100 mg kg-1 po Q.D., 4 wk): 3804.5 | glomerular lesion scores vs vehicle ([2]; 100 mg kg−1 once or twice daily): significantly reduced | death/survival [2, 3]: prevented death in all mice | proteinuria vs vehicle [2, 3]: significant decrease in proteinuria | Histological score (glomerular lesion), individual mouse ([2]; B.I.D. 100 mg kg-1): 0 and 1 | Survival rate ([2]; B.I.D. 100 mg kg-1, day 0): 100% | Survival rate ([2]; B.I.D. 100 mg kg-1, day 1): 100% | Survival rate ([2]; B.I.D. 100 mg kg-1, day 2): 100% | Survival rate ([2]; B.I.D. 100 mg kg-1, day 3): 100% | Survival rate ([2]; B.I.D. 100 mg kg-1, day 4): 100% | Survival rate ([2]; B.I.D. 100 mg kg-1, day 5): 100% | Survival rate ([2]; B.I.D. 100 mg kg-1, day 6): 100% | Survival rate ([2]; B.I.D. 100 mg kg-1, day 7): 100% | Survival rate ([2]; B.I.D. 100 mg kg-1, day 8): 100% | Survival rate ([2]; B.I.D. 100 mg kg-1, day 9): 100% | Survival rate ([2]; B.I.D. 100 mg kg-1, day 10): 100% | Survival rate ([2]; B.I.D. 100 mg kg-1, day 11): 100% | Survival rate ([2]; B.I.D. 100 mg kg-1, day 12): 100% | Survival rate ([2]; B.I.D. 100 mg kg-1, day 13): 100% | Survival rate ([2]; B.I.D. 100 mg kg-1, day 14): 100% | Survival rate ([2]; B.I.D. 100 mg kg-1, day 15): 100% | Survival rate ([2]; B.I.D. 100 mg kg-1, day 16): 100% | Survival rate ([2]; B.I.D. 100 mg kg-1, day 17): 100% | Survival rate ([2]; B.I.D. 100 mg kg-1, day 18): 100% | Survival rate ([2]; B.I.D. 100 mg kg-1, day 19): 100% | Survival rate ([2]; B.I.D. 100 mg kg-1, day 20): 100% | Survival rate ([2]; B.I.D. 100 mg kg-1, day 21): 100% | Survival rate ([2]; B.I.D. 100 mg kg-1, day 22): 100% | Survival rate ([2]; B.I.D. 100 mg kg-1, day 23): 100% | Survival rate ([2]; B.I.D. 100 mg kg-1, day 24): 100% | Survival rate ([2]; B.I.D. 100 mg kg-1, day 25): 100% | Survival rate ([2]; B.I.D. 100 mg kg-1, day 26): 100% | Survival rate ([2]; B.I.D. 100 mg kg-1, day 27): 100% | Survival rate ([2]; B.I.D. 100 mg kg-1, day 28): 100% | Histological score (glomerular lesion), Mean ([2]; B.I.D. 100 mg kg-1): 0.3333 | Histological score (glomerular lesion), individual mouse ([2]; Q.D. 100 mg kg-1): 0 and 2 and 1 and 3 | Survival rate ([2]; Q.D. 100 mg kg-1, day 0): 100% | Survival rate ([2]; Q.D. 100 mg kg-1, day 1): 100% | Survival rate ([2]; Q.D. 100 mg kg-1, day 2): 100% | Survival rate ([2]; Q.D. 100 mg kg-1, day 3): 100% | Survival rate ([2]; Q.D. 100 mg kg-1, day 4): 100% | Survival rate ([2]; Q.D. 100 mg kg-1, day 5): 100% | Survival rate ([2]; Q.D. 100 mg kg-1, day 6): 100% | Survival rate ([2]; Q.D. 100 mg kg-1, day 7): 100% | Survival rate ([2]; Q.D. 100 mg kg-1, day 8): 100% | Survival rate ([2]; Q.D. 100 mg kg-1, day 9): 100% | Survival rate ([2]; Q.D. 100 mg kg-1, day 10): 100% | Survival rate ([2]; Q.D. 100 mg kg-1, day 11): 100% | Survival rate ([2]; Q.D. 100 mg kg-1, day 12): 100% | Survival rate ([2]; Q.D. 100 mg kg-1, day 13): 100% | Survival rate ([2]; Q.D. 100 mg kg-1, day 14): 100% | Survival rate ([2]; Q.D. 100 mg kg-1, day 15): 100% | Survival rate ([2]; Q.D. 100 mg kg-1, day 16): 100% | Survival rate ([2]; Q.D. 100 mg kg-1, day 17): 100% | Survival rate ([2]; Q.D. 100 mg kg-1, day 18): 100% | Survival rate ([2]; Q.D. 100 mg kg-1, day 19): 100% | Survival rate ([2]; Q.D. 100 mg kg-1, day 20): 100% | Survival rate ([2]; Q.D. 100 mg kg-1, day 21): 100% | Survival rate ([2]; Q.D. 100 mg kg-1, day 22): 100% | Survival rate ([2]; Q.D. 100 mg kg-1, day 23): 100% | Survival rate ([2]; Q.D. 100 mg kg-1, day 24): 100% | Survival rate ([2]; Q.D. 100 mg kg-1, day 25): 100% | Survival rate ([2]; Q.D. 100 mg kg-1, day 26): 100% | Survival rate ([2]; Q.D. 100 mg kg-1, day 27): 100% | Survival rate ([2]; Q.D. 100 mg kg-1, day 28): 100% | Histological score (glomerular lesion), Mean ([2]; Q.D. 100 mg kg-1): 1 | toxic signs in body weights or clinical signs ([2]; both treatment groups): no clear toxic signs
